We go through eleven molecules from patent US8642554B2, “Smac mimetic dimers and trimers useful as anti-cancer agents” (Joyant Pharmaceuticals, Inc., priority 2007, dated 2014).

Assay [1] relates to Caspase3 activity in Hela S100 (blocked by IAPs). The assay is described as follows: In vitro caspase-3 activation assay in Hela S100. The note with it: 100 nM compound, activity compared with reference compound, Table 1 experiment. Format: biochemical. On the procedure:
Caspase3 in most cell extracts can be activated by the addition of 1 mM dATP through the mitochondria caspase pathway. […] Taking advantage of this feature, we use 100 nM of synthetic Smac mimetic compound to test its ability to eliminate IAPs in the Hela S100 and fully induce Caspase3 activity. The In Vitro Caspase3 assay is carried out at 30° C., incubating 100 nM compounds with 30 ug of Hela S100, 1 mM dATP, 10 uM Caspase3 fluorogenic substrate (Caspase3 Substrate II, Fluorogenic, #235425 from Calbiochem). The readout is caspase-3 activity represented by relative fluorogenic unit, which is recorded kinetically. The slope in linear region of the curve for each compound is calculated.
Percent activity data is presented by comparing activity of the test compound with activity of the reference compound in Caspase-3 activation assay in vitro. The ratio of each synthetic compound's slope versus the slope of control reflects in vitro caspase-3 activation ability of compounds.

Assay [2] has as its system HCC461 cells. The assay is described as follows: Cell viability assay in HCC461 cells (WST-1). Format: cell-based. The note with it: 48 hrs incubation. The protocol: HCC461 cells plated in 96 well plates at 5×10^4/ml cell density are treated with 50× synthetic Smac mimetic compounds (final concentration range between 30 uM and 0.001 uM). After 48 hrs incubation at 37° C. and 5% CO2 viability of the cells are measured using Cell Proliferation Reagent WST-1 assay kit (Roche Cat #11 644 807 001).
WST-1 assay principle: The tetrazolium salts are cleaved to formazan by cellular enzymes. An expansion in the number of viable cells results in an increase in the overall activity of mitochondrial dehydrogenases in the samples. This augmentation in the enzyme activity leads to an increase in the amount of formazan dye formed, which directly correlates to the number of metabolically active cells in the culture. Quantification of the formazan dye produced by metabolically active cells by using a microplate (ELISA) reader at 420-480 nm.
In general terms: Tetrazolium dyes change colour on reduction, which living cells bring about.

In assay [3] the target is truncated XIAP containing only BIR1, BIR2, and BIR3 domains (Homo sapiens, UniProt P98170). The assay is described as follows: Fluorescent polarization (FP) assay. It counts as binding. On the procedure: Increasing concentrations of Smac compounds are incubated with 2 nM of labeled peptide (fluorescein labeled 10mer peptide with AVPI 4 amino acids at its N terminus-Alexa Fluor 488) and truncated XIAP containing only BIR1, BIR2, and BIR3 domains at room temperature for 1 hour. Fluorescence reading, indicative of the bound portion of the labeled peptide, is measured in milipolarization units (mP). The more compound added, less fluorescein labeled peptide bind to the protein due to the competitive binding and less fluorescence signal is released.
Based on this principle, we obtain the Ki value that evaluates compound's binding affinity.

Setting [4] is: HCC461, 48 h, Table 1 experiment.
Setting [5] is: HCC461, 48 h, Table 2 experiment.

Sequence of truncated XIAP containing only BIR1, BIR2, and BIR3 domains (P98170 26-330 limits assumed): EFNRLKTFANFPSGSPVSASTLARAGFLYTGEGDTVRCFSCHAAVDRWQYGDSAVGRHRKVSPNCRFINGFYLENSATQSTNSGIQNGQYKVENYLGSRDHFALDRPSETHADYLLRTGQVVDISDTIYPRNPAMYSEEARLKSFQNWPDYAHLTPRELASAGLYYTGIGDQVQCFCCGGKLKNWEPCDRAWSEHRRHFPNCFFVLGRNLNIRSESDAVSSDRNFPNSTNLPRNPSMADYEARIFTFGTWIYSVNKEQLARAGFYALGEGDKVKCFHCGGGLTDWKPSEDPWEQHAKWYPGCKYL

What is called IC50 is the point on the concentration scale where inhibition reaches its midpoint. A low value points to greater potency in that assay. A word on the Ki: it is a measure of affinity in units of concentration, obtained from inhibition or displacement. For the molecule `CN[C@@H](C)C(=O)NC(C(=O)C1C[C@@H](NC(=O)C2CCCC2C(=O)N[C@H]2CC(C(=O)N[C@@H]3CCCc4ccccc43)N(C(=O)[C@@H](NC(=O)[C@H](C)NC)C(C)(C)C)C2)CC1C(=O)N[C@@H]1CCCc2ccccc21)C(C)(C)C.Cl.Cl` (single isomer, unassigned) [compound 17], the “% Activity at 100 nM” value in assay [1] (0.1 µM) is on record as 92%. The molecule further gave an IC50 in assay [2] (setting [4]) of 0.019 µM. This molecule also registered a Ki in assay [3] (Table 1 experiment) of 0.5 µM.

In the case of `CN[C@@H](C)C(=O)NC(C(=O)C1C[C@@H](NC(=O)C2CCCC2C(=O)N[C@H]2CC(C(=O)N[C@@H]3CCCc4ccccc43)N(C(=O)[C@@H](NC(=O)[C@H](C)NC)C(C)(C)C)C2)CC1C(=O)N[C@@H]1CCCc2ccccc21)C(C)(C)C.Cl.Cl` (single isomer, unassigned) [compound 18], the “% Activity at 100 nM” value in assay [1] (0.1 µM) was 107%. Moreover, in assay [2] (Table 1 experiment), it took 0.033 µM to reach half-maximal inhibition (IC50). Also, the Ki in assay [3] (Table 1 experiment) amounted to 0.35 µM.

`CN[C@@H](C)C(=O)N[C@@H](CC#CC#CC[C@H](NC(=O)[C@H](C)NC)C(=O)N1CCC[C@H]1C(=O)N[C@@H]1CCCc2ccccc21)C(=O)N1CCC[C@H]1C(=O)N[C@@H]1CCCc2ccccc21.Cl.Cl` [Ref cpd, reference compound]: in assay [1], the “% Activity at 100 nM” value was 100%. For the same molecule, the IC50 in assay [2] (setting [4]) worked out at 0.082 µM; in assay [2] (setting [5]) it was 0.063 µM. Besides, the Ki in assay [3] (Table 1 experiment) amounted to 0.35 µM; in assay [3] (Table 2 experiment) it was 0.15 µM.

Regarding `CN[C@@H](C)C(=O)N[C@H](C(=O)N1C[C@@H](NC(=O)c2ccc(C(=O)N[C@H]3C[C@@H](C(=O)N[C@@H]4CCCc5ccccc54)N(C(=O)[C@@H](NC(=O)[C@H](C)NC)C(C)(C)C)C3)s2)C[C@H]1C(=O)N[C@@H]1CCCc2ccccc21)C(C)(C)C.Cl.Cl` [compound 12], the “% Activity at 100 nM” value in assay [1] is 104%. Besides, the IC50 in assay [2] (setting [4]) is 0.002 µM. Also, the Ki in assay [3] (Table 1 experiment) was 0.4 µM.

As to `CN[C@@H](C)C(=O)N[C@H](C(=O)N1C[C@@H](NS(=O)(=O)c2cccc(S(=O)(=O)N[C@H]3C[C@@H](C(=O)N[C@@H]4CCCc5ccccc54)N(C(=O)[C@@H](NC(=O)[C@H](C)NC)C(C)(C)C)C3)c2)C[C@H]1C(=O)N[C@@H]1CCCc2ccccc21)C(C)(C)C.Cl.Cl` [compound 13], the “% Activity at 100 nM” value in assay [1] is recorded as 108%. Also, in assay [2] (setting [4]), the IC50 came to 0.026 µM. The Ki in assay [3] (Table 1 experiment) was determined as 0.3 µM.

With `CN[C@@H](C)C(=O)N[C@H](C(=O)N1C[C@@H](NC(=O)c2cc(O)cc(C(=O)N[C@H]3C[C@@H](C(=O)N[C@@H]4CCCc5ccccc54)N(C(=O)[C@@H](NC(=O)[C@H](C)NC)C(C)(C)C)C3)c2)C[C@H]1C(=O)N[C@@H]1CCCc2ccccc21)C(C)(C)C.Cl.Cl` [compound 14], the “% Activity at 100 nM” value in assay [1] turned out to be 86%. In assay [2] (setting [4]), this molecule displayed an IC50 of 0.026 µM. Moreover, in assay [3] (Table 1 experiment), the affinity, expressed as Ki, was 0.44 µM.

Consider `CN[C@@H](C)C(=O)N[C@H](C(=O)N1C[C@@H](NC(=O)c2cc(C(=O)N[C@H]3C[C@@H](C(=O)N[C@@H]4CCCc5ccccc54)N(C(=O)[C@@H](NC(=O)[C@H](C)NC)C(C)(C)C)C3)[nH]n2)C[C@H]1C(=O)N[C@@H]1CCCc2ccccc21)C(C)(C)C.Cl.Cl` [compound 15], for which, in assay [1], the “% Activity at 100 nM” value is recorded as 116%. This molecule came in with an IC50 in assay [2] (setting [4]) of 0.009 µM. The molecule further registered a Ki in assay [3] (Table 1 experiment) of 0.45 µM.

For `CN[C@@H](C)C(=O)N[C@H](C(=O)N1C[C@@H](NC(=O)CN(C)CC(=O)N[C@H]2C[C@@H](C(=O)N[C@@H]3CCCc4ccccc43)N(C(=O)[C@@H](NC(=O)[C@H](C)NC)C(C)(C)C)C2)C[C@H]1C(=O)N[C@@H]1CCCc2ccccc21)C(C)(C)C.Cl.Cl.Cl` [compound 16], in assay [1], the “% Activity at 100 nM” value was determined as 115%. In assay [2] (setting [4]), this molecule had an IC50 of 0.074 µM. This molecule also yielded a Ki in assay [3] (Table 1 experiment) of 0.4 µM.

As for `CN[C@@H](C)C(=O)NC(C(=O)C1C[C@@H](NC(=O)c2cccc(C(=O)N[C@H]3CC(C(=O)N[C@@H]4CCCc5ccccc54)N(C(=O)[C@@H](NC(=O)[C@H](C)NC)C(C)(C)C)C3)c2)CC1C(=O)N[C@@H]1CCCc2ccccc21)C(C)(C)C.Cl.Cl` (stereo partly drawn) [compound 19], in assay [1], the “% Activity at 100 nM” value amounted to 120%. The IC50 in assay [2] (setting [4]) worked out at 0.007 µM. For the same molecule, the affinity in assay [3] (Table 1 experiment) corresponds to a Ki of 0.45 µM.

For `CN[C@@H](C)C(=O)N[C@H](C(=O)N1C[C@@H](NC(=O)[C@@H]2CC[C@](C)(C(=O)N[C@H]3C[C@@H](C(=O)N[C@@H]4CCCc5ccccc54)N(C(=O)[C@@H](NC(=O)[C@H](C)NC)C(C)(C)C)C3)C2(C)C)C[C@H]1C(=O)N[C@@H]1CCCc2ccccc21)C(C)(C)C` [compound 31], it took 0.003 µM to reach half-maximal inhibition in assay [2] (setting [5]) (IC50). Moreover, the inhibition constant Ki in assay [3] (Table 2 experiment) is 0.34 µM.

The molecule `CN[C@@H](C)C(=O)N[C@H](C(=O)N1C[C@@H](NC(=O)c2cc(N)cc(C(=O)N[C@H]3C[C@@H](C(=O)N[C@@H]4CCCc5ccccc54)N(C(=O)[C@@H](NC(=O)[C@H](C)NC)C(C)(C)C)C3)c2)C[C@H]1C(=O)N[C@@H]1CCCc2ccccc21)C(C)(C)C` [compound 32] had an IC50 in assay [2] (setting [5]) of 0.015 µM. The molecule further yielded a Ki in assay [3] (Table 2 experiment) of 0.23 µM.
